Each molecule was assayed on M17_3SYN cells (assay: Paraquat-induced cytotoxicity (LDH) in α-synuclein over-expressing M17_3SYN neuroblastoma cells). Conditions: Homo sapiens, Neuroblastoma cell, 48 h, 6 mM Paraquat, 2 days, LDH toxicity inhibition, read-out: SYN EC50.
Type: cell-based
From the text: A α-synuclein expression plasmid was constructed by subcloning the NcoI/XhoI fragment from 212T-SYN(WT) (Griffioen et al., Biochem Biophys Acta (2006) 1762(3):312-318) containing the cDNA of human wild type α-synuclein correspondingly into a standard mammalian expression vector pcDNA3.1 resulting in plasmid pcDNA3.1-SYNwt. Plasmids pcDNA3.1 and pcDNA3.1-SYNwt were transfected into human neuroblastoma cells (BE-M17; ATCC No. CRL-2267™) using lipofectamine reagent and subsequently, independent clonal cell lines with the plasmids stably integrated into the genome were selected by antibiotic resistance selection (Geneticin (G418)), resulting in cell lines M17.pcDNA3 and M17_3SYN. Overexpression of α-synuclein in the M17_3SYN cell line was confirmed by Western blot analysis.
Due to the high levels of α-synuclein, M17_3SYN cells were sensitive to paraquat, a well-known risk factor Parkinson's disease and of synuclein-dependent neuronal degeneration. Cytotoxicity of cells was measured by quantification of lactate dehydrogenase (LDH) levels. In dead cells, LDH leaked out of the cells into the medium due to a loss of plasma-membrane integrity.
Three days preceding the experiment, primary pre-cultures of M17.pcDNA3 (as possible control) and M17_3SYN cells were prepared, starting from a stock culture, at a density of 20.000-40.000 cells/cm2 in culture medium (Opti-MEM® Reduced Serum Medium with Phenol Red (Invitrogen, Cat. 31985-047) supplemented with 10% FCS, 1 mM sodium pyruvate, 1×NEAA, 500 μg/ml G418 and 0.5× antibiotic/antimycotic (ABAM)). 3 days later these primary pre-cultures were used as a starting point to make secondary pre-cultures at a density of 50.000-100.000 cells/cm^2. At the day of the experiment these secondary precultures were diluted to ˜0.5·10^6 cells/ml in detection medium (Opti-MEM® Reduced-Serum Medium without Phenol Red (Invitrogen, Cat. 11085-021) supplemented with 10% FCS, 1 mM sodium pyruvate, 1×NEAA, 500 μg/ml G418 and 0.5×ABAM) and 60 μL of this suspension was dispensed per well into a 96-well microtiter plate. After 3 hours of incubation at 37° C./5% CO2 an equal volume of detection medium containing a final concentration of 6 mM Paraquat was added and subsequently incubated for 2 days at 37° C./5% CO2. Then LDH activity was determined using the Promega Cytotox 96 Non-Radioactive cytotoxicity assay (Promega, Cat. G1780), according to the manufacturer's instructions. Cytotoxicity was defined as the ratio of LDH relative to the total LDH in the cells and supernatant.
The assay described above using the M17_3SYN cell line allowed screening compounds for their ability to decrease cytotoxicity in PQ-challenged cells. Compounds of the invention were tested for their ability to decrease toxicity at different concentrations, ranging from low non-effective concentrations to high effective concentrations. Afterwards, a dose-dependent inhibition curve was used to calculate the EC50. A compound was considered to be active in this test when it inhibited toxicity by more than 20% relative to untreated M17_3SYN cells at a concentration of […] or lower.

First: COc1ccc(S(=O)(=O)N2CCC3(CC2)CN(S(=O)(=O)c2ccc(F)cc2)C3)cc1 [Cmpd002, 2-((4-Fluorophenyl)sulfonyl)-7-((4-methoxyphenyl)sulfonyl)-2,7-diazaspiro[3.5]nonane]
Second: CCOc1ccc(S(=O)(=O)N2CCC3(CC2)CN(S(=O)(=O)c2ccc(OC)cc2)C3)cc1 [Cmpd046, 7-((4-Ethoxyphenyl)sulfonyl)-2-((4-methoxyphenyl)sulfonyl)-2,7-diazaspiro[3.5]nonane]
The EC50 of the first is 7.8-fold higher: 25.8 nM for the first, 3.3 nM for the second.

Going from `COc1ccc(S(=O)(=O)N2CCC3(CC2)CN(C(=O)C(C)(C)c2ccccc2)C3)cc1` [Cmpd013, 1-(7-((4-Methoxyphenyl)sulfonyl)-2,7-diazaspiro[3.5]nonan-2-yl)-2-methyl-2-phenylpropan-1-one] to `COc1ccc(S(=O)(=O)N2CCC3(CC2)CN(C(=O)C(C)(C)c2cccc(OC)c2)C3)cc1` [Cmpd016, 2-(3-Methoxyphenyl)-1-(7-((4-methoxyphenyl)sulfonyl)-2,7-diazaspiro[3.5]nonan-2-yl)-2-methylpropan-1-one], the EC50 falls from 44.4 nM to 29.3 nM (1.5-fold). The second is the more potent here.

Going from `COc1ccc(S(=O)(=O)N2CCC3(CC2)CN(c2nc(Cc4ccc(Cl)cc4)ns2)C3)cc1` [Cmpd032, 3-(4-Chlorobenzyl)-5-(7-((4-methoxyphenyl)sulfonyl)-2,7-diazaspiro[3.5]nonan-2-yl)-1,2,4-thiadiazole] to `COc1ccc(S(=O)(=O)N2CCC3(CC2)CN(c2nc(Cc4ccc(F)cc4)ns2)C3)cc1` [Cmpd057, 3-(4-Fluorobenzyl)-5-(7-((4-methoxyphenyl)sulfonyl)-2,7-diazaspiro[3.5]nonan-2-yl)-1,2,4-thiadiazole], the EC50 falls from 170 nM to 1.9 nM (89-fold). The second is the more potent here.

Compared with `COc1ccc(S(=O)(=O)N2CCC3(CC2)CN(c2nc(Cc4ccc(F)c(F)c4)ns2)C3)cc1` [Cmpd033, 3-(3,4-Difluorobenzyl)-5-(7-((4-methoxyphenyl)sulfonyl)-2,7-diazaspiro[3.5]nonan-2-yl)-1,2,4-thiadiazole], `COc1ccc(S(=O)(=O)N2CCC3(CC2)CN(c2nc(Cc4cccc(C(F)(F)F)c4)ns2)C3)cc1` [Cmpd036, 5-(7-((4-Methoxyphenyl)sulfonyl)-2,7-diazaspiro[3.5]nonan-2-yl)-3-(3-(trifluoromethyl)benzyl)-1,2,4-thiadiazole] is 1.5-fold higher in EC50: 332 nM for the first, 499 nM for the second. The first is the more potent here.

`CCCCc1nsc(N2CC3(CCN(S(=O)(=O)c4ccc(OC)cc4)CC3)C2)n1` [Cmpd035, 3-Butyl-5-(7-((4-methoxyphenyl)sulfonyl)-2,7-diazaspiro[3.5]nonan-2-yl)-1,2,4-thiadiazole] and `COc1ccc(S(=O)(=O)N2CCC3(CC2)CN(c2nc4ccc(Cl)cc4s2)C3)cc1` [Cmpd052, 6-Chloro-2-(7-((4-methoxyphenyl)sulfonyl)-2,7-diazaspiro[3.5]nonan-2-yl)benzo[d]thiazole] are within 1.5-fold of each other in EC50: 326 nM for the first, 463 nM for the second.

Going from `CSc1ccc(S(=O)(=O)N2CCC3(CC2)CN(c2nc(Cc4ccc(F)cc4)ns2)C3)cc1` [Cmpd041, 3-(4-Fluorobenzyl)-5-(7-((4-(methylthio)phenyl)sulfonyl)-2,7-diazaspiro[3.5]nonan-2-yl)-1,2,4-thiadiazole] to `CCc1ccc(S(=O)(=O)N2CCC3(CC2)CN(c2nc(Cc4ccc(F)cc4)ns2)C3)cc1` [Cmpd068, 5-(7-((4-Ethylphenyl)sulfonyl)-2,7-diazaspiro[3.5]nonan-2-yl)-3-(4-fluorobenzyl)-1,2,4-thiadiazole], the EC50 rises from 177 nM to 399 nM (2.3-fold). The first is the more potent here.

`O=S(=O)(c1ccc(OC(F)F)cc1)N1CCC2(CC1)CN(c1nc3ccc(Cl)cc3s1)C2` [Cmpd054, 6-Chloro-2-(7-((4-(difluoromethoxy)phenyl)sulfonyl)-2,7-diazaspiro[3.5]nonan-2-yl)benzo[d]thiazole] and `CSc1ccc(S(=O)(=O)N2CCC3(CC2)CN(c2nc4ccc(Cl)cc4s2)C3)cc1` [Cmpd055, 6-Chloro-2-(7-((4-(methylthio)phenyl)sulfonyl)-2,7-diazaspiro[3.5]nonan-2-yl)benzo[d]thiazole] are within 1.5-fold of each other in EC50: 406 nM for the first, 334 nM for the second.

First: COc1ccc(S(=O)(=O)N2CCC3(CC2)CN(c2nc(Cc4ccc(F)cc4)ns2)C3)cc1OC [Cmpd061, 5-(7-((3,4-Dimethoxyphenyl)sulfonyl)-2,7-diazaspiro[3.5]nonan-2-yl)-3-(4-fluorobenzyl)-1,2,4-thiadiazole]
Second: COc1ccc(OC)c(S(=O)(=O)N2CCC3(CC2)CN(c2nc(Cc4ccc(F)cc4)ns2)C3)c1 [Cmpd072, 5-(7-((2,5-Dimethoxyphenyl)sulfonyl)-2,7-diazaspiro[3.5]nonan-2-yl)-3-(4-fluorobenzyl)-1,2,4-thiadiazole]
The EC50 of the first is 1.5-fold higher: 320 nM for the first, 212 nM for the second. The second is the more potent here.

`COc1ccc(C)cc1S(=O)(=O)N1CCC2(CC1)CN(c1nc(Cc3ccc(F)cc3)ns1)C2` [Cmpd062, 3-(4-Fluorobenzyl)-5-(7-((2-methoxy-5-methylphenyl)sulfonyl)-2,7-diazaspiro[3.5]nonan-2-yl)-1,2,4-thiadiazole] and `COc1ccccc1S(=O)(=O)N1CCC2(CC1)CN(c1nc(Cc3ccc(F)cc3)ns1)C2` [Cmpd080, 3-(4-Fluorobenzyl)-5-(7-((2-methoxyphenyl)sulfonyl)-2,7-diazaspiro[3.5]nonan-2-yl)-1,2,4-thiadiazole] are within 1.5-fold of each other in EC50: 342 nM for the first, 501 nM for the second.

Compared with `O=S(=O)(c1cccc(C(F)(F)F)c1)N1CCC2(CC1)CN(c1nc(Cc3ccc(F)cc3)ns1)C2` [Cmpd064, 3-(4-Fluorobenzyl)-5-(7-((3-(trifluoromethyl)phenyl)sulfonyl)-2,7-diazaspiro[3.5]nonan-2-yl)-1,2,4-thiadiazole], `O=S(=O)(c1cccc(F)c1)N1CCC2(CC1)CN(c1nc(Cc3ccc(F)cc3)ns1)C2` [Cmpd071, 3-(4-Fluorobenzyl)-5-(7-((3-fluorophenyl)sulfonyl)-2,7-diazaspiro[3.5]nonan-2-yl)-1,2,4-thiadiazole] is 2.4-fold lower in EC50: 1070 nM for the first, 441 nM for the second.

`Cc1cccc(S(=O)(=O)N2CCC3(CC2)CN(c2nc(Cc4ccc(F)cc4)ns2)C3)c1` [Cmpd066, 3-(4-Fluorobenzyl)-5-(7-(m-tolylsulfonyl)-2,7-diazaspiro[3.5]nonan-2-yl)-1,2,4-thiadiazole] and `COc1cccc(S(=O)(=O)N2CCC3(CC2)CN(c2nc(Cc4ccc(F)cc4)ns2)C3)c1` [Cmpd076, 3-(4-Fluorobenzyl)-5-(7-((3-methoxyphenyl)sulfonyl)-2,7-diazaspiro[3.5]nonan-2-yl)-1,2,4-thiadiazole] are within 1.5-fold of each other in EC50: 399 nM for the first, 394 nM for the second.

`Cc1ccccc1S(=O)(=O)N1CCC2(CC1)CN(c1nc(Cc3ccc(F)cc3)ns1)C2` [Cmpd069, 3-(4-Fluorobenzyl)-5-(7-(o-tolylsulfonyl)-2,7-diazaspiro[3.5]nonan-2-yl)-1,2,4-thiadiazole] and `Cc1ccc(F)cc1S(=O)(=O)N1CCC2(CC1)CN(c1nc(Cc3ccc(F)cc3)ns1)C2` [Cmpd077, 5-(7-((5-Fluoro-2-methylphenyl)sulfonyl)-2,7-diazaspiro[3.5]nonan-2-yl)-3-(4-fluorobenzyl)-1,2,4-thiadiazole] are within 1.5-fold of each other in EC50: 182 nM for the first, 235 nM for the second.

`O=S(=O)(c1cc(F)ccc1F)N1CCC2(CC1)CN(c1nc(Cc3ccc(F)cc3)ns1)C2` [Cmpd073, 5-(7-((2,5-Difluorophenyl)sulfonyl)-2,7-diazaspiro[3.5]nonan-2-yl)-3-(4-fluorobenzyl)-1,2,4-thiadiazole] and `O=S(=O)(c1c(F)cccc1F)N1CCC2(CC1)CN(c1nc(Cc3ccc(F)cc3)ns1)C2` [Cmpd074, 5-(7-((2,6-Difluorophenyl)sulfonyl)-2,7-diazaspiro[3.5]nonan-2-yl)-3-(4-fluorobenzyl)-1,2,4-thiadiazole] are within 1.5-fold of each other in EC50: 217 nM for the first, 260 nM for the second.

From US9617264B2, “2,7-diazaspiro[3.5]nonane compounds” (REMYND NV, priority 2014, dated 2017)
